According to US20020111314A1, “Novel stimulation of gene expression and protein synthesis of heat shock protein 72/73 (Hsp 70)” (The Trustees of Columbia University, priority 1995, published 2002):
Square brackets hold non-standard residues; d marks the D form. Peptide text beside a SMILES is read from it. Nle = CCCC[C@H](N)C(=O)O

Test system: HSF1
Experiment: HSF1 steady-state level and trimerization (Western blot, EGS cross-linking) in HepG2 cells
Type: cell-based, human
Details: ALLN 40 μg/ml, 2 hours
Procedure: HepG2 cells were treated with serum-free MEM containing 1.5% BSA for 2 hours at 37° C. without any additions (lane 1), at 37° C. but containing 40 μg/ml of ALLN in the medium (lane 2), at 37° C. in a medium containing both ALLN and 50 μg/ml of cycloheximide (lane 3), at 42° C. alone (lane 4), or at 42° C. plus cycloheximide in the medium (lane 5). Cell lysates were prepared as described under Experimental Details. The lysates were either directly run on the SDS-PAGE (A) to show the steady-state protein levels of HSF1 or subjected to cross-linking with ethylene glycol bis sucrinimidylsuccinate (EGS) before running the gel (B) to show the oligomeric forms of HSF1. The proteins were then transfered to a nitrocellulose membrane and immunoblotted with anti-human HSF1 antibody. Arrows on the right side indicates the monomeric, dimeric or trimeric forms of HSF1, respectively. This experiment was repeated three times with identical results.
Total RNA was prepared using the procedure of Chomczynski and Sacchi (Chomczynski, et al., 1987) and a commercially prepared reagent, TRISOLV™ (Biotecx Laboratories Inc., TX). Equal amounts of tRNA samples (10 μg) were size-fractionated on a 1% agarose-formaldehyde gel according to the methods described (Maniatis, et al., 1982) and transferred to a piece of QIAGEN plus nylon membrane. To determine loading and transfer efficiency, RNA was stained with ethidium bromide before and after transfer. The membrane was baked for 30 min. at 80° C. in vacuo (a vacuum) followed by UV cross-linking. It was then incubated for 4 hours at 65° C. in a prehybridization mixture containing 10% dextran sulfate, 1% SDS, 1M sodium chloride, 50 mM Tris-HCl (pH 7.5) and 100 μg/ml denatured salmon sperm DNA. Hybridization was carried out for 18 hours at 65° C. in the same buffer with a ^32P-labeled (1×10^6 cpm/ml) 40-mer oligonucleotide probe to the untranslated 5′ region of a human hsp70 gene (Oncogene Science). […] The membrane was then washed four times with 2×SSC, 0.1% SDS at room temperature, one time at 65° C. for 30 min., and one time at room temperature again for 5 min., and finally rinsed with 2×SSC at room temperature. This membrane was air dried and exposed to X-ray film at −80° C. for 48 hours. For measurement of the steady-state HSF1 protein levels, whole cell extracts were prepared by lysing the cells directly with 2×SDS-sample buffer (Maniatis, et al., 1982). For chemical cross-linking experiments, whole-cell extracts were prepared as described (Mosser, et al., 1988). Briefly, the cold PBS-washed cell pellets were quickly and repeatedly frozen in liquid nitrogen. […]

CCCC[C@@H](C=O)NC(=O)[C@H](CC(C)C)NC(=O)[C@H](CC(C)C)NC(C)=O [ALLN, N-acetyl-leucyl-leucyl-norleucinal] (Ac-Leu-Leu-[Nle]-aldehyde)
oligomeric form of HSF1 after EGS cross-linking (270-kDa cross-linked product): exists as a trimer | steady-state levels of HSF1 in whole cell extracts (with or without cycloheximide): not significantly affected
